Active and inactive are the calls of the source. The rule behind the calls is not given here.
Test system: rodent lifetime carcinogenesis bioassay, tumor incidence TD50
Test: chronic cancer bioassays in animals – CPDB, compiled studies (AID 1745844)

`Cc1ccc(N=C=O)cc1N=C=O` was tested, and the TD50 (mouse, strain B6C3F1, females, by gavage, site: abdominal cavity + liver + ovary + spleen + subcutaneous tissue, lesion: hemangiosarcoma + hemangioma, dosed 105 weeks, study length 107 weeks) was 580 mg/kg/day, the TD50 (mouse, strain B6C3F1, females, by gavage, site: abdominal cavity + liver + ovary + spleen + subcutaneous tissue, lesion: hemangiosarcoma + hepatocellular adenoma + hemangioma, dosed 105 weeks, study length 107 weeks) was 181 mg/kg/day and the TD50 (mouse, strain B6C3F1, females, by gavage, site: abdominal cavity + liver + ovary, lesion: hemangiosarcoma, dosed 105 weeks, study length 107 weeks) was 1200 mg/kg/day. The TD50 (mouse, strain B6C3F1, females, by gavage, site: any site (literature study), lesion: several types, types named in the paper, dosed 105 weeks, study length 107 weeks) was 305 mg/kg/day, the TD50 (mouse, strain B6C3F1, females, by gavage, site: liver, lesion: hepatocellular adenoma + hepatocellular carcinoma + neoplastic nodule, dosed 105 weeks, study length 107 weeks) was 215 mg/kg/day and the TD50 (mouse, strain B6C3F1, females, by gavage, site: liver, lesion: hepatocellular adenoma + hepatocellular carcinoma, dosed 105 weeks, study length 107 weeks) was 215 mg/kg/day. The TD50 (mouse, strain B6C3F1, females, by gavage, site: liver, lesion: hepatocellular adenoma, dosed 105 weeks, study length 107 weeks) was 250 mg/kg/day, the TD50 (mouse, strain B6C3F1, females, by gavage, site: lung, lesion: alveolar/bronchiolar adenoma + alveolar/bronchiolar carcinoma, dosed 105 weeks, study length 107 weeks) was 815 mg/kg/day and the TD50 (mouse, strain B6C3F1, males, by gavage, site: any site (literature study), lesion: several types, types named in the paper, dosed 105 weeks, study length 107 weeks) was 253 mg/kg/day (inactive). For the same molecule, the TD50 (mouse, strain B6C3F1, males, by gavage, site: lung, lesion: alveolar/bronchiolar adenoma + alveolar/bronchiolar carcinoma, dosed 105 weeks, study length 107 weeks) was 1920 mg/kg/day, the carcinogen call (mouse, strain Charles River CD1, females, inhaled, site: any site (literature study), lesion: benign tumor, dosed 104 weeks, study length 104 weeks) was “negative (inactive)” and the carcinogen call (mouse, strain Charles River CD1, females, inhaled, site: any site (literature study), lesion: malignant tumor, dosed 104 weeks, study length 104 weeks) was “negative (inactive)”. For the same molecule, the carcinogen call (mouse, strain Charles River CD1, females, inhaled, site: any site (literature study), lesion: several types, types named in the paper, dosed 104 weeks, study length 104 weeks) was “negative (inactive)”, the carcinogen call (mouse, strain Charles River CD1, females, inhaled, site: liver, lesion: hepatocellular adenoma, dosed 104 weeks, study length 104 weeks) was “negative (inactive)” and the carcinogen call (mouse, strain Charles River CD1, females, inhaled, site: liver, lesion: hepatocellular carcinoma, dosed 104 weeks, study length 104 weeks) was “negative (inactive)”. The carcinogen call (mouse, strain Charles River CD1, females, inhaled, site: lung, lesion: adenoma, dosed 104 weeks, study length 104 weeks) was “negative (inactive)”, the carcinogen call (mouse, strain Charles River CD1, females, inhaled, site: lung, lesion: carcinoma, dosed 104 weeks, study length 104 weeks) was “negative (inactive)” and the carcinogen call (mouse, strain Charles River CD1, males, inhaled, site: any site (literature study), lesion: benign tumor, dosed 104 weeks, study length 104 weeks) was “negative (inactive)”. The carcinogen call (mouse, strain Charles River CD1, males, inhaled, site: any site (literature study), lesion: malignant tumor, dosed 104 weeks, study length 104 weeks) was “negative (inactive)”, the TD50 (mouse, strain Charles River CD1, males, inhaled, site: any site (literature study), lesion: several types, types named in the paper, dosed 104 weeks, study length 104 weeks) was 1.63 mg/kg/day (inactive) and the carcinogen call (mouse, strain Charles River CD1, males, inhaled, site: liver, lesion: hepatocellular adenoma, dosed 104 weeks, study length 104 weeks) was “negative (inactive)”. The carcinogen call (mouse, strain Charles River CD1, males, inhaled, site: liver, lesion: hepatocellular carcinoma, dosed 104 weeks, study length 104 weeks) was “negative (inactive)”, the TD50 (mouse, strain Charles River CD1, males, inhaled, site: lung, lesion: adenoma, dosed 104 weeks, study length 104 weeks) was 0.3 mg/kg/day (inactive) and the carcinogen call (mouse, strain Charles River CD1, males, inhaled, site: lung, lesion: carcinoma, dosed 104 weeks, study length 104 weeks) was “negative (inactive)”. For the same molecule, the carcinogen call (rat, strain Charles River CD (Sprague-Dawley), females, inhaled, site: any site (literature study), lesion: benign tumor, dosed 108 weeks, study length 108 weeks) was “negative (inactive)”, the TD50 (rat, strain Charles River CD (Sprague-Dawley), females, inhaled, site: any site (literature study), lesion: malignant tumor, dosed 108 weeks, study length 108 weeks) was 1.09 mg/kg/day (inactive) and the carcinogen call (rat, strain Charles River CD (Sprague-Dawley), females, inhaled, site: any site (literature study), lesion: several types, types named in the paper, dosed 108 weeks, study length 108 weeks) was “negative (inactive)”. For the same molecule, the TD50 (rat, strain Charles River CD (Sprague-Dawley), females, inhaled, site: liver, lesion: hepatocellular carcinoma, dosed 108 weeks, study length 108 weeks) was 8.24 mg/kg/day (inactive), the carcinogen call (rat, strain Charles River CD (Sprague-Dawley), males, inhaled, site: any site (literature study), lesion: benign tumor, dosed 110 weeks, study length 110 weeks) was “negative (inactive)” and the TD50 (rat, strain Charles River CD (Sprague-Dawley), males, inhaled, site: any site (literature study), lesion: malignant tumor, dosed 110 weeks, study length 110 weeks) was 6.18 mg/kg/day (inactive). The carcinogen call (rat, strain Charles River CD (Sprague-Dawley), males, inhaled, site: any site (literature study), lesion: several types, types named in the paper, dosed 110 weeks, study length 110 weeks) was “negative (inactive)”, the carcinogen call (rat, strain Charles River CD (Sprague-Dawley), males, inhaled, site: liver, lesion: hepatocellular carcinoma, dosed 110 weeks, study length 110 weeks) was “negative (inactive)” and the TD50 (rat, strain Fischer 344, females, by gavage, site: adrenal gland, lesion: cortical adenoma, dosed 106 weeks, study length 108 weeks) was 174 mg/kg/day. It also gave a TD50 (rat, strain Fischer 344, females, by gavage, site: adrenal gland, lesion: pheochromocytoma, dosed 106 weeks, study length 108 weeks) of 143 mg/kg/day, a TD50 (rat, strain Fischer 344, females, by gavage, site: any site (literature study), lesion: several types, types named in the paper, dosed 106 weeks, study length 108 weeks) of 25.1 mg/kg/day and a TD50 (rat, strain Fischer 344, females, by gavage, site: clitoral gland, lesion: adenoma, NOS, dosed 106 weeks, study length 108 weeks) of 260 mg/kg/day. The TD50 (rat, strain Fischer 344, females, by gavage, site: liver + mammary gland + pancreatic islets + subcutaneous tissue, lesion: neoplastic nodule + fibroadenoma + islet-cell adenoma + fibrosarcoma + fibroma, dosed 106 weeks, study length 108 weeks) was 25.4 mg/kg/day, the TD50 (rat, strain Fischer 344, females, by gavage, site: liver, lesion: hepatocellular adenoma + hepatocellular carcinoma + neoplastic nodule, dosed 106 weeks, study length 108 weeks) was 92.2 mg/kg/day and the TD50 (rat, strain Fischer 344, females, by gavage, site: liver, lesion: neoplastic nodule, dosed 106 weeks, study length 108 weeks) was 92.2 mg/kg/day. For the same molecule, the TD50 (rat, strain Fischer 344, females, by gavage, site: mammary gland, lesion: fibroadenoma, dosed 106 weeks, study length 108 weeks) was 33.4 mg/kg/day, the TD50 (rat, strain Fischer 344, females, by gavage, site: pancreatic islets, lesion: islet-cell adenoma + islet-cell carcinoma, dosed 106 weeks, study length 108 weeks) was 115 mg/kg/day and the TD50 (rat, strain Fischer 344, females, by gavage, site: pancreatic islets, lesion: islet-cell adenoma, dosed 106 weeks, study length 108 weeks) was 135 mg/kg/day. The TD50 (rat, strain Fischer 344, females, by gavage, site: pituitary gland, lesion: chromophobe adenoma + chromophobe carcinoma, dosed 106 weeks, study length 108 weeks) was 86.9 mg/kg/day, the TD50 (rat, strain Fischer 344, females, by gavage, site: pituitary gland, lesion: chromophobe adenoma, dosed 106 weeks, study length 108 weeks) was 77.3 mg/kg/day and the TD50 (rat, strain Fischer 344, females, by gavage, site: subcutaneous tissue, lesion: fibroma, dosed 106 weeks, study length 108 weeks) was 256 mg/kg/day. It also gave a TD50 (rat, strain Fischer 344, females, by gavage, site: subcutaneous tissue, lesion: fibrosarcoma + fibroma, dosed 106 weeks, study length 108 weeks) of 206 mg/kg/day, a TD50 (rat, strain Fischer 344, males, by gavage, site: any site (literature study), lesion: several types, types named in the paper, dosed 106 weeks, study length 108 weeks) of 18.4 mg/kg/day and a TD50 (rat, strain Fischer 344, males, by gavage, site: liver, lesion: hepatocellular adenoma + hepatocellular carcinoma + neoplastic nodule, dosed 106 weeks, study length 108 weeks) of 196 mg/kg/day. It also gave a TD50 (rat, strain Fischer 344, males, by gavage, site: pancreas + subcutaneous tissue, lesion: acinar-cell adenoma + fibrosarcoma + fibroma, dosed 106 weeks, study length 108 weeks) of 27.3 mg/kg/day, a TD50 (rat, strain Fischer 344, males, by gavage, site: pancreas, lesion: acinar-cell adenoma, dosed 106 weeks, study length 108 weeks) of 51.6 mg/kg/day and a TD50 (rat, strain Fischer 344, males, by gavage, site: pancreatic islets, lesion: islet-cell adenoma + islet-cell carcinoma, dosed 106 weeks, study length 108 weeks) of 201 mg/kg/day. The TD50 (rat, strain Fischer 344, males, by gavage, site: pituitary gland, lesion: chromophobe adenoma + chromophobe carcinoma, dosed 106 weeks, study length 108 weeks) was 83.7 mg/kg/day, the TD50 (rat, strain Fischer 344, males, by gavage, site: pituitary gland, lesion: chromophobe adenoma, dosed 106 weeks, study length 108 weeks) was 76.4 mg/kg/day and the TD50 (rat, strain Fischer 344, males, by gavage, site: subcutaneous tissue, lesion: fibroma, dosed 106 weeks, study length 108 weeks) was 56 mg/kg/day. The TD50 (rat, strain Fischer 344, males, by gavage, site: subcutaneous tissue, lesion: fibrosarcoma + fibroma, dosed 106 weeks, study length 108 weeks) was 34.1 mg/kg/day, the TD50 (rat, strain Fischer 344, males, by gavage, site: subcutaneous tissue, lesion: fibrosarcoma + osteosarcoma + sarcoma, NOS, dosed 106 weeks, study length 108 weeks) was 103 mg/kg/day and the TD50 (rat, strain Fischer 344, males, by gavage, site: subcutaneous tissue, lesion: fibrosarcoma, dosed 106 weeks, study length 108 weeks) was 92.4 mg/kg/day. The TD50 (rat, strain Fischer 344, males, by gavage, site: testis, lesion: interstitial-cell tumor + interstitial-cell tumor, malignant, dosed 106 weeks, study length 108 weeks) was 13.6 mg/kg/day.

`CC(C)(OCc1ccc(-c2ccc(Cl)cc2)cc1)C(=O)O` was tested, and the carcinogen call (hamster, strain Syrian Golden, females, in feed, site: liver, lesion: one or several types, types not named, dosed 104 weeks, study length 104 weeks) was “negative (inactive)”, the carcinogen call (hamster, strain Syrian Golden, females, in feed, site: lung, lesion: one or several types, types not named, dosed 104 weeks, study length 104 weeks) was “negative (inactive)” and the carcinogen call (hamster, strain Syrian Golden, males, in feed, site: liver, lesion: one or several types, types not named, dosed 104 weeks, study length 104 weeks) was “negative (inactive)”. For the same molecule, the TD50 (hamster, strain Syrian Golden, males, in feed, site: lung, lesion: one or several types, types not named, dosed 104 weeks, study length 104 weeks) was 1510 mg/kg/day (inactive), the TD50 (mouse, strain C57BL/10J, females, in feed, site: liver, lesion: hepatocellular carcinoma, dosed 78 weeks, study length 78 weeks) was 870 mg/kg/day and the TD50 (mouse, strain C57BL/10J, females, in feed, site: lung, lesion: one or several types, types not named, dosed 78 weeks, study length 78 weeks) was 1010 mg/kg/day. It also gave a TD50 (mouse, strain C57BL/10J, males, in feed, site: liver, lesion: hepatocellular adenoma, dosed 78 weeks, study length 78 weeks) of 154 mg/kg/day, a TD50 (mouse, strain C57BL/10J, males, in feed, site: liver, lesion: hepatocellular carcinoma, dosed 78 weeks, study length 78 weeks) of 214 mg/kg/day and a TD50 (rat, strain Alpk:APfSD, males, in feed, site: liver, lesion: hepatocellular adenoma, dosed 104 weeks, study length 104 weeks) of 62.5 mg/kg/day.
